# Activity calls are given as the source filed them. The rule behind the calls is not given here.
# Target: Mitogen-activated protein kinase kinase kinase 2 (Homo sapiens) + Dual specificity mitogen-activated protein kinase kinase 5 (Homo sapiens) (UniProt Q9Y2U5+Q13163)
# Assay: MEKK2 PB1-MEK5 interaction blockers – biochemical, bead multiplex flow cytometry, wildtype, dose response (AID 1897)
# Conditions: MEK5-MEKK2 PB1 binding
# Mitogen-activated protein kinase kinase kinase 2 (Homo sapiens) + Dual specificity mitogen-activated protein kinase kinase 5 (Homo sapiens), sequence (Q13163 whole entry, looked up): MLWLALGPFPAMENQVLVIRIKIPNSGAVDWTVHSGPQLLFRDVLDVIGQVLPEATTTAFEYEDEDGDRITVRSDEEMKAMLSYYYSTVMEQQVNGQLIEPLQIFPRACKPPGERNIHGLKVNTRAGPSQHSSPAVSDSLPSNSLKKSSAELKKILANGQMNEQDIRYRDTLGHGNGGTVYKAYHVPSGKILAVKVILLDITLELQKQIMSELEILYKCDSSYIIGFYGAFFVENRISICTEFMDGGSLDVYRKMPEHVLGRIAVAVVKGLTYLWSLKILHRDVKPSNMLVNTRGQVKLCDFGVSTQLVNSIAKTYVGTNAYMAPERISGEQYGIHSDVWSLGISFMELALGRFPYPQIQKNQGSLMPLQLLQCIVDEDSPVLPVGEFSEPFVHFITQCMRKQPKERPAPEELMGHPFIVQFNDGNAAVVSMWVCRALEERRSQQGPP
# Mitogen-activated protein kinase kinase kinase 2 (Homo sapiens) + Dual specificity mitogen-activated protein kinase kinase 5 (Homo sapiens), sequence (Q9Y2U5 whole entry, looked up): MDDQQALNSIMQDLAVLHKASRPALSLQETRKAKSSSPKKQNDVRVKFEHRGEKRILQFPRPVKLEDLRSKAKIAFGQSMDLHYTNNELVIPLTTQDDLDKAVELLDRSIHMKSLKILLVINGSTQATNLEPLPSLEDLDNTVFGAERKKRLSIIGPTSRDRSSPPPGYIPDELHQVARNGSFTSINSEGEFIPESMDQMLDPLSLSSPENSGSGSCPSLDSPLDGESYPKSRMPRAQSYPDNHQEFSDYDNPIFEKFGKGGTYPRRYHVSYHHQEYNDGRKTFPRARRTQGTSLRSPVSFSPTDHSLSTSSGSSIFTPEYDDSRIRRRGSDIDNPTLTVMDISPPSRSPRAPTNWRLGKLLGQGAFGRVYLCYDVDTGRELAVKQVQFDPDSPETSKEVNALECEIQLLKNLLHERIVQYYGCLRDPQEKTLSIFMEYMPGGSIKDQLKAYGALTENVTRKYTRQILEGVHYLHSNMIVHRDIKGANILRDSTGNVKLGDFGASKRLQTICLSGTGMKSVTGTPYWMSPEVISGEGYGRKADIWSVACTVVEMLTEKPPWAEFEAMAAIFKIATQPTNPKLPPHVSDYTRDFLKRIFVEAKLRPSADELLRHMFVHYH
row,SMILES,EC50
1,CCN1C(c2ccccc2)=C(c2ccccc2)S/C1=C/C=C1\SC(=S)N(C)C1=O,2.73 µM
2,COc1cccc(OC)c1-c1nn2c(-c3cc(-c4ccccc4)n[nH]3)nnc2s1,5.32 µM
3,CCOC(=O)C1=C(c2ccccc2)NC(N)=NC1c1ccc(OCc2ccc(C(=O)OC)cc2)cc1 (stereo not given),> 30 µM (inactive)
4,CCOC(=O)c1c(-c2ccc(-c3ccccc3)cc2)csc1NC(=O)CNCCN(C)C,1.55 µM
5,CCN1/C(=C\c2ccc3cc(C)ccc3[n+]2CC)Sc2cc(C)c(C)cc21,> 30 µM (inactive)
6,CN(C)c1ccc(NC(=O)CN2CCC(O)(c3ccccc3)CC2)cc1,> 30 µM (inactive)
7,Cc1nc(N)sc1-c1csc(Nc2ncccn2)n1,> 30 µM (inactive)
8,CCCCCCCCCCOC(=O)Cn1c(COc2cccc(OC)c2)[n+](C)c2ccccc21,4.33 µM
9,O=C1c2ccccc2-c2onc3ccc(NCc4ccco4)c1c23,> 30 µM (inactive)
10,COc1ccc(N2CC(C(=O)Nc3nnc(SCc4ccccn4)s3)CC2=O)cc1 (stereo not given),> 30 µM (inactive)
11,COc1ccc(-c2csc(N(CCCN(C)C)C(=O)c3ccccc3Cl)n2)cc1,> 30 µM (inactive)
12,CCCCCCCCCCOC(=O)Cn1c(COc2ccccc2C)[n+](C)c2ccccc21,> 30 µM (inactive)
13,COc1ccc(C2NCCc3c2[nH]c2ccccc32)cc1CN1CCc2cc(OC)c(OC)cc2C1C (stereo not given),10.5 µM
14,C#CCOCCOCCOCCNc1nc(N2CCN(C(=O)[C@H]([C@@H](C)CC)n3cc([C@@H](N)Cc4ccc(O)cc4)nn3)CC2)nc(N2CCN(C(=O)[C@H](CCCCN)n3cc([C@@H](N)CC(C)C)nn3)CC2)n1,10.1 µM
15,COCc1c(C#N)c(NCCc2ccccc2)nc(C)c1[N+](=O)[O-],> 30 µM (inactive)
16,CCCCCCCCCCOC(=O)Cn1c(COc2ccccc2OC)[n+](C)c2ccccc21,3.05 µM
17,CCCCCCCCCCCCCCCC[n+]1cccc2ccccc21,> 30 µM (inactive)
18,CCN(CC)CCOC(=O)c1ccc(N/C=C(/C#N)c2nc(-c3cccc(OC)c3)cs2)cc1,> 30 µM (inactive)
19,CC(=O)Nc1cccc2c1C(=O)N(c1cccc(C)c1)C2=O,> 30 µM (inactive)
20,C#CCOCCOCCOCCNc1nc(N2CCN(C(=O)[C@H](Cc3cc4ccccc4[nH]3)n3cc([C@@H](N)CC(C)C)nn3)CC2)nc(N2CCN(C(=O)[C@H](Cc3cc4ccccc4[nH]3)n3cc([C@@H](N)CC(C)C)nn3)CC2)n1,> 30 µM (inactive)

row,SMILES,EC50
1,Cc1ccccc1OCC(O)CNC1CCC(NCC(O)COc2ccccc2C)CC1 (stereo not given),> 30 µM (inactive)
2,CCN1CCN(Cc2ccc(NC(=O)c3cc(NC(=O)c4cncc(-c5cccs5)c4)cc(OC)c3)cc2C(F)(F)F)CC1,> 30 µM (inactive)
3,C/C(=N\NC(=O)c1cc(O)cc(O)c1)c1ccc(NC(=O)Cc2ccccc2)cc1,> 30 µM (inactive)
4,C#CCOCCOCCOCCNc1nc(N2CCN(C(=O)[C@H]([C@@H](C)CC)n3cc([C@@H](N)CC(C)C)nn3)CC2)nc(N2CCN(C(=O)[C@H](Cc3cc4ccccc4[nH]3)n3cc([C@@H](N)CC(C)C)nn3)CC2)n1,7.74 µM
5,C=CC#CC[N+]1(CC#Cc2ccccc2)CCOCC1,> 30 µM (inactive)
6,CCN1/C(=C/C=C/C=C/C=C/c2sc3ccccc3[n+]2CC)Sc2ccccc21,> 30 µM (inactive)
7,CN1CCN(c2ccc(NC(=O)c3ccc(-c4ccc(Cl)cc4)o3)cc2)CC1,2.26 µM
8,C#CCOCCOCCOCCNc1nc(N2CCN(C(=O)C(Cc3cc4ccccc4[nH]3)n3cc(C(N)C(C)CC)nn3)CC2)nc(N2CCN(C(=O)C(Cc3cc4ccccc4[nH]3)n3cc(C(N)C(C)CC)nn3)CC2)n1 (stereo not given),1.75 µM
9,CCCCN(CC)CCNC(=O)c1cc2c(-c3ccc(Cl)cc3)nn(C)c2s1,14.4 µM
10,CNC(=O)C(=O)Nc1c(C)cc(C)cc1C,> 30 µM (inactive)
11,COc1ccc(-c2[nH]ncc2CN2CCCCCCC2)c(OC)c1,> 30 µM (inactive)
12,CCOC(=O)C1=C(c2ccccc2)NC(N)=NC1c1ccc(OCc2ccc(Cl)cc2)c(OC)c1 (stereo not given),0.58 µM
13,CCC(/C=C1\Sc2ccc(OC)cc2N1CCO)=C\c1sc2ccc(OC)cc2[n+]1CCO,0.87 µM
14,Nc1cc2nc[nH]c2cc1N,10.7 µM
15,CCN(CC)CCOC(=O)c1ccc(NC(=O)c2cn(-c3ccccc3)nc2-c2cccs2)cc1,> 30 µM (inactive)
16,CC(=O)Nc1ccc(OCC(O)Cn2c3ccccc3c3ccccc32)cc1 (stereo not given),> 30 µM (inactive)
17,CCCCCc1cc(=O)oc2c(C(CCN3CCCCC3)c3ccc4c(c3)OCO4)c(OC)cc(OC)c12 (stereo not given),> 30 µM (inactive)
18,C=CCN1C(=O)/C(=C/c2ccc(-c3ccc(F)cc3)o2)SC1=S,2.06 µM
19,CCCN(CCC)CCNC(=O)c1cc2c(-c3ccc(Cl)cc3)nn(C)c2s1,15.1 µM
20,C#CCOCCOCCOCCNc1nc(N2CCN(C(=O)[C@H](Cc3cc4ccccc4[nH]3)n3cc([C@@H](N)C(C)CC)nn3)CC2)nc(N2CCN(C(=O)[C@H](CCCCN)n3cc([C@@H](N)CC(C)C)nn3)CC2)n1 (stereo not given in full),6.9 µM

row,SMILES,EC50
1,C#CCOCCOCCOCCNc1nc(N2CCN(C(=O)[C@H](Cc3ccc(O)cc3)n3cc([C@@H](N)C(C)CC)nn3)CC2)nc(N2CCN(C(=O)[C@H](Cc3cc4ccccc4[nH]3)n3cc([C@@H](N)CC(C)C)nn3)CC2)n1 (stereo not given in full),> 30 µM (inactive)
2,C#CCOCCOCCOCCNc1nc(N2CCN(C(=O)[C@H]([C@@H](C)CC)n3cc([C@@H](N)CO)nn3)CC2)nc(N2CCN(C(=O)[C@H](Cc3cc4ccccc4[nH]3)n3cc([C@@H](N)Cc4ccc(O)cc4)nn3)CC2)n1,0.52 µM
3,CN1CCN(CC(=O)N2CCn3c4c(c5cc(C6CCCCC6)ccc53)CCCC42)CC1 (stereo not given),> 30 µM (inactive)
4,Cc1cc2cc(CNC(=O)NC3CCCCC3)ccc2[nH]1,4.13 µM
5,COCCNC(=O)CN(c1cc(Cl)ccc1OC)S(=O)(=O)c1ccc(C)c([N+](=O)[O-])c1,> 30 µM (inactive)
6,COc1ccc(Cn2c(SCc3ccccc3C)nc3cc(OC)c(OC)cc3c2=N)cc1,> 30 µM (inactive)
7,Nc1ccc2nc(-c3ccc(-c4nc5ccc(N)cc5[nH]4)cc3)[nH]c2c1,> 30 µM (inactive)
8,Cc1ccc(-c2c[n+](CC(=O)Nc3nc(-c4ccc(F)cc4)cs3)c3n2CCC3)cc1,9.91 µM
9,C#CCOCCOCCOCCNc1nc(N2CCN(C(=O)[C@H](Cc3ccc(O)cc3)n3cc([C@@H](N)CC(C)C)nn3)CC2)nc(N2CCN(C(=O)[C@H](Cc3cc4ccccc4[nH]3)n3cc([C@@H](N)CC(C)C)nn3)CC2)n1,5.14 µM
10,NC(N)=N/N=C/c1ccc(OCc2ccccc2Cl)cc1,19.2 µM
11,CCCCCCCCCCOC(=O)Cn1c(COc2ccc(C)cc2)[n+](C)c2ccccc21,1.8 µM
12,FC(F)(F)c1cccc(NC(=S)N(CCCN2CCCC2)Cc2cccn2Cc2ccc(Cl)cc2)c1,5.19 µM
13,CSc1cccc(NC(=S)N(CCCN2CCCC2)Cc2cccn2Cc2ccc(Cl)cc2)c1,5.82 µM
14,CCOc1ccc(C2=C/C(=C/c3cccnc3)C(=O)O2)cc1,> 30 µM (inactive)
15,O=C(c1cc(COc2c(F)cccc2F)on1)N1C[C@H]2CC[C@H]1C2,> 30 µM (inactive)
16,c1ccc(CNc2nc(NCc3ccccc3)c3ccccc3n2)cc1,> 30 µM (inactive)
17,Cc1ccc(-n2cc(CNCCCn3ccnc3C)c(-c3ccc(F)cc3)n2)cc1,> 30 µM (inactive)
18,CN(C)CCCn1c(SCC(=O)Nc2nc(-c3cccc(Br)c3)cs2)nc2ccccc2c1=O,> 30 µM (inactive)

# Same assay, conditions: MEK5-MEKK2 PB1 binding, measured here: Ki from binding competition
row,SMILES,Ki [µM]
1,CCN1C(c2ccccc2)=C(c2ccccc2)S/C1=C/C=C1\SC(=S)N(C)C1=O,2.44
2,COc1cccc(OC)c1-c1nn2c(-c3cc(-c4ccccc4)n[nH]3)nnc2s1,4.76
3,CN1CCN(c2ccc(NC(=O)c3ccc(-c4ccc(Cl)cc4)o3)cc2)CC1,2.02
4,CCC(/C=C1\Sc2ccc(OC)cc2N1CCO)=C\c1sc2ccc(OC)cc2[n+]1CCO,0.78
5,Nc1cc2nc[nH]c2cc1N,9.61
6,C=CCN1C(=O)/C(=C/c2ccc(-c3ccc(F)cc3)o2)SC1=S,1.84
7,Cc1cc2cc(CNC(=O)NC3CCCCC3)ccc2[nH]1,3.69

# From PubChem BioAssay AID1897 (NMMLSC, 2009)
